Source: patent USRE39591E1, “6-O-substituted ketolides having antibacterial activity” (Abbott Laboratories, priority 1996, dated 2007)
Values after ≈ are worked out from the molar mass of the structure shown.

Test system: up to 32 different microorganisms
Assay: in vitro antibacterial activity (MIC), agar dilution on Brain Heart Infusion (BHI) agar with Steers replicator
Format: cell-based
Settings: unit assumed
Procedure: Representative compounds of the present invention were assayed in vitro for antibacterial activity as follows: Twelve petri dishes containing successive aqueous dilutions of the test compound mixed with 10 mL of sterilized Brain Heart Infusion (BHI) agar (Difco 0148-01-5) were prepared. Each plate was inoculated with 1:100 (or 1:10 for slow-growing strains, such as Micrococcus and Streptococcus) dilutions of up to 32 different microorganisms, using a Steers replicator block. The inoculated plates were incubated at 35°-37° C. for 20 to 24 hours. In addition, a control plate, using BHI agar containing no test compound, was prepared and incubated at the beginning and end of each test.
An additional plate containing a compound having known susceptibility patterns for the organisms being tested and belonging to the same antibiotic class as the test compound was also prepared and incubated as a further control, as well as to provide test-to-test comparability. Erythromycin A was used for this purpose.
After incubation, each plate was visually inspected. The minimum inhibitory concentration (MIC) was defined as the lowest concentration of drug yielding no growth, a slight haze, or sparsely isolated colonies on the inoculum spot as compared to the growth control.

[1] = Candida albicans CCH 442 (code TT)
[2] = Enterococcus faecism ATCC 8043 (code II)
[3] = Escherichia coli DC-2 (code SS)
[4] = Escherichia coli JUHL (code QQ)
[5] = Haemophilis influenzae DILL AMP R (code WW)
[6] = Micrococcus luteus ATCC 4698 (code PP)
[7] = Micrococcus luteus ATCC 9341 (code OO)
[8] = Mycobacterium smegmatis ATCC 114 (code UU)
[9] = Nocardia Asteroides ATCC9970 (code VV)
[10] = Staphylococcus aureus 1775 (code GG)
[11] = Staphylococcus aureus A5177 (code BB)
[12] = Staphylococcus aureus A-5278 (code CC)
[13] = Staphylococcus aureus ATCC 6538P (code AA)
[14] = Staphylococcus aureus CMX 553 (code FF)
[15] = Staphylococcus aureus CMX 642A (code DD)
[16] = Staphylococcus aureus NCTC10649M (code EE)
[17] = Staphylococcus epidermidis 3519 (code HH)
[18] = Streptococcus Pneumonia 5649 (code ZZA)
[19] = Streptococcus Pneumonia 5979 (code ZZ)
[20] = Streptococcus Pneumonia ATCC6303 (code XX)
[21] = Streptococcus Pneumonia GYR 1171 (code YY)
[22] = Streptococcus agalactiae CMX 508 (code KK)
[23] = Streptococcus bovis A-5169 (code JJ)
[24] = Streptococcus pyogenes 930 (code MM)
[25] = Streptococcus pyogenes EES61 (code LL)
[26] = Streptococcus pyogenes PIU 2548 (code NN)

Compound: CC[C@H]1OC(=O)[C@H](C)C(=O)[C@H](C)[C@@H](O[C@@H]2O[C@H](C)C[C@H](N(C)C)[C@H]2O)[C@@](C)(OCC=NOCc2cccc3ccccc23)C[C@@H](C)C(=O)[C@H](C)[C@H]2NC(=O)O[C@@]21C [Example 235, Compound of Formula (IX): L is CO, T is NH, R is —CH2CH═NOCH2(1-naphthyl)]
- MIC (organism code AA): 0.2 µg/mL
- MIC (organism code BB): 0.2 µg/mL
- MIC (organism code CC): > 100 µg/mL
- MIC (organism code DD): 0.2 µg/mL
- MIC (organism code EE): 0.2 µg/mL
- MIC (organism code FF): 0.2 µg/mL
- MIC (organism code GG): > 100 µg/mL
- MIC (organism code HH): 0.2 µg/mL
- MIC (organism code II): 0.05 µg/mL
- MIC (organism code JJ): 0.01 µg/mL
- MIC (organism code KK): 0.01 µg/mL
- MIC (organism code LL): 0.01 µg/mL
- MIC (organism code MM): 25 µg/mL
- MIC (organism code NN): 0.2 µg/mL
- MIC (organism code OO): 0.05 µg/mL
- MIC (organism code PP): 0.39 µg/mL
- MIC (organism code QQ): > 100 µg/mL
- MIC (organism code RR): 0.78 µg/mL
- MIC (organism code SS): > 100 µg/mL
- MIC (organism code TT): > 100 µg/mL
- MIC (organism code UU): 0.78 µg/mL
- MIC (organism code VV): 3.1 µg/mL
- MIC (organism code WW): 4 µg/mL
- MIC (organism code XX): 0.03 µg/mL
- MIC (organism code YY): 0.03 µg/mL
- MIC (organism code ZZ): 32 µg/mL
- MIC (organism code ZZA): 0.5 µg/mL

Compound: CC[C@H]1OC(=O)[C@H](C)C(=O)[C@H](C)[C@@H](O[C@@H]2O[C@H](C)C[C@H](N(C)C)[C@H]2O)[C@@](C)(OCC=Cc2ccccc2)C[C@@H](C)C(=O)[C@H](C)[C@H]2NC(=O)O[C@@]21C [Example 103, Compound of Formula (IX): L is CO, T is NH, R is —CH2CH═CH-Phenyl]
- MIC [1]: > 100 µg/mL
- MIC [2]: 0.05 µg/mL
- MIC [3]: 100 µg/mL
- MIC [4]: 100 µg/mL
- MIC (Escherichia coli SS (code RR)): 0.39 µg/mL
- MIC [5]: 4 µg/mL
- MIC [6]: 0.1 µg/mL
- MIC [7]: 0.01 µg/mL
- MIC [8]: 0.2 µg/mL
- MIC [9]: 0.02 µg/mL
- MIC [10]: > 100 µg/mL
- MIC [11]: 0.1 µg/mL
- MIC [12]: > 100 µg/mL
- MIC [13]: 0.1 µg/mL
- MIC [14]: 0.1 µg/mL
- MIC [15]: 0.1 µg/mL
- MIC [16]: 0.1 µg/mL
- MIC [17]: 0.1 µg/mL
- MIC [18]: 0.25 µg/mL
- MIC [19]: 128 µg/mL
- MIC [20]: 0.03 µg/mL
- MIC [21]: 0.03 µg/mL
- MIC [22]: 0.02 µg/mL
- MIC [23]: 0.01 µg/mL
- MIC [24]: 100 µg/mL
- MIC [25]: 0.02 µg/mL
- MIC [26]: 0.1 µg/mL

Compound: CCC1OC(=O)C(C)C(=O)C(C)C(OC2OC(C)CC(N(C)C)C2O)C(C)(OCC=Cc2cccnc2)CC(C)C(=O)C(C)C2NC(=O)OC12C (stereo not drawn) [Example 185, R is —CH2CH═CH-(3-pyridyl)]
- MIC [1]: > 100 µg/mL
- MIC [2]: 0.05 µg/mL (≈ 0.0698 µM)
- MIC [3]: 100 µg/mL (≈ 140 µM)
- MIC [4]: 100 µg/mL (≈ 140 µM)
- MIC (Escherichia coli SS (code RR)): 0.39 µg/mL (≈ 0.545 µM)
- MIC [5]: 1 µg/mL (≈ 1.4 µM)
- MIC [6]: 0.1 µg/mL (≈ 0.14 µM)
- MIC [7]: 0.01 µg/mL (≈ 0.014 µM)
- MIC [8]: 3.1 µg/mL (≈ 4.33 µM)
- MIC [9]: 0.1 µg/mL (≈ 0.14 µM)
- MIC [10]: > 100 µg/mL
- MIC [11]: 0.1 µg/mL (≈ 0.14 µM)
- MIC [12]: > 100 µg/mL
- MIC [13]: 0.1 µg/mL (≈ 0.14 µM)
- MIC [14]: 0.1 µg/mL (≈ 0.14 µM)
- MIC [15]: 0.1 µg/mL (≈ 0.14 µM)
- MIC [16]: 0.1 µg/mL (≈ 0.14 µM)
- MIC [17]: 0.1 µg/mL (≈ 0.14 µM)
- MIC [18]: 0.5 µg/mL (≈ 0.698 µM)
- MIC [19]: > 128 µg/mL
- MIC [20]: 0.03 µg/mL (≈ 0.0419 µM)
- MIC [21]: 0.03 µg/mL (≈ 0.0419 µM)
- MIC [22]: 0.01 µg/mL (≈ 0.014 µM)
- MIC [23]: ≤ 0.005 µg/mL
- MIC [24]: > 100 µg/mL
- MIC [25]: 0.01 µg/mL (≈ 0.014 µM)
- MIC [26]: 0.2 µg/mL (≈ 0.279 µM)

Compound: CC[C@H]1OC(=O)[C@H](C)C(=O)[C@H](C)[C@@H](O[C@@H]2O[C@H](C)C[C@H](N(C)C)[C@H]2O)[C@@](C)(OCC=Cc2ccccc2)C[C@@H](C)C(=O)[C@H](C)[C@@H](O)[C@]1(C)O [Example 14, Compound of Formula (VIII): X is O, R is —CH2CH═CH-Phenyl]
- MIC [1]: > 100 µg/mL
- MIC [2]: 0.78 µg/mL
- MIC [3]: > 100 µg/mL
- MIC [4]: > 100 µg/mL
- MIC (Escherichia coli SS (code RR)): 6.2 µg/mL
- MIC [5]: 128 µg/mL
- MIC [6]: 0.78 µg/mL
- MIC [7]: 0.39 µg/mL
- MIC [8]: 3.1 µg/mL
- MIC [9]: 3.1 µg/mL
- MIC [10]: > 100 µg/mL
- MIC [11]: 1.56 µg/mL
- MIC [12]: > 100 µg/mL
- MIC [13]: 1.56 µg/mL
- MIC [14]: 3.1 µg/mL
- MIC [15]: 3.1 µg/mL
- MIC [16]: 3.1 µg/mL
- MIC [17]: 1.56 µg/mL
- MIC [18]: 2 µg/mL
- MIC [19]: 128 µg/mL
- MIC [20]: 1 µg/mL
- MIC [21]: 0.25 µg/mL
- MIC [22]: 0.2 µg/mL
- MIC [23]: 0.2 µg/mL
- MIC [24]: 50 µg/mL
- MIC [25]: 0.39 µg/mL
- MIC [26]: 0.78 µg/mL
